Results as given in patent US8993718B2, “Methods and compositions for detecting and modulating O-glycosylation” (President and Fellows of Harvard College, priority 2007, dated 2015).
Non-standard residues stand in square brackets, D forms with d. Primed or numbered codes have the meaning given here. No end group written: not given here. *: point of attachment. FITC = O=C1OC2(c3ccc(O)cc3Oc3cc(O)ccc32)c2ccc(NC(=S)*)cc21; Aha′ = not defined here

Molecular target: T1, sOGT (Homo sapiens, UniProt O15294)
T1 sequence (O15294 1-665 isoform O15294-4): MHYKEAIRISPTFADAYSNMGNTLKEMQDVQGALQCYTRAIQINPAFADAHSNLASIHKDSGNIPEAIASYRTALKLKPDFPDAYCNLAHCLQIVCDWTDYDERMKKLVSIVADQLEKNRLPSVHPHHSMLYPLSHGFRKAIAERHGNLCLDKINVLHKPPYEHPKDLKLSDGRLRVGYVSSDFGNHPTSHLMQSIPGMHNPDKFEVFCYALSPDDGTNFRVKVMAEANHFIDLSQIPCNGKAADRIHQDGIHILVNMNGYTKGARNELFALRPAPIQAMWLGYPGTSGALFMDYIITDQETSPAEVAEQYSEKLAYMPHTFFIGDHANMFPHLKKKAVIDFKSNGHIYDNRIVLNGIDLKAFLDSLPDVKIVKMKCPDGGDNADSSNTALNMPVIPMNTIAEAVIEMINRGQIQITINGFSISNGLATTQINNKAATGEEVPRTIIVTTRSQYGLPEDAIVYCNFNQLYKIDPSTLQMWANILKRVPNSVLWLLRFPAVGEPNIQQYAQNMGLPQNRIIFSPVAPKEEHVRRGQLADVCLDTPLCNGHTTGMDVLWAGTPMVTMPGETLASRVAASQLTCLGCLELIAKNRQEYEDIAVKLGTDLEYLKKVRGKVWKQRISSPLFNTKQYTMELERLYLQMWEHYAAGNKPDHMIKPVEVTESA
Test: High-throughput kinetic protease-protection screen with polypeptide 4.10
Format: biochemical
Conditions: 25 μg/mL (~70 μM); hit = <70% activity in one duplicate and <80% in the second
Description: With the final assay conditions established, 124,226 compounds were screened in duplicate at the ICCB (Harvard University, Boston, Mass.) over two days; the highest throughput of any assay performed at the ICCB screening facility. Small molecule libraries from several commercial vendors were screened as well as known bioactive compounds, natural product extracts, and molecules made using diversity oriented synthetic approaches. Included in this set were 52,026 of the 64,416 compounds screened using a donor displacement method such as that described in PCT application PCT/US2007/008806, which was filed Apr. 11, 2007. The vast majority compounds screened were small molecules (average MW ˜350) that were optimized to have favorable physico-chemical properties such as solubility, decreased toxicity, and increased stability. All of the commercial compounds at the ICCB are plated at a stock concentration of 5 mg/mL, which, given a 20 μL reaction volume, corresponds to a 25 μg/mL inhibitor concentration in each well. The format of most compound plates at the ICCB has the last two columns of each 384-well plate empty. This allowed each assay plate to have column of negative controls (run without inhibitor) and column of positive controls (run without sOGT), which allowed a Z′ to be calculated for each plate. These values typically ranged from 0.7-0.8.
Data workup began by calculating the average positive and negative control values independently for both duplicates of each plate. Using the linear relationship between percent glycosylation and fluorescence shown above (FIG. 7), the percent glycosylation was calculated for each well, with 0% corresponding to the average value of the positive controls and 100% corresponding to the average value of the negative controls. In actuality the range is roughly […] glycosylated polypeptide since the reaction was not allowed to proceed to completion. However, this simplification was employed to facilitate the comparison of different sets of plates. There were remarkably few compounds that reproducibly appeared to inhibit OGT, which enabled hits to be selected using a very high cutoff. Compounds with <70% activity in one duplicate and <80% activity in the second duplicate were scored as hits. Even using this lax criterion, the total unfiltered hit set only numbered 84, corresponding to a hit rate of 0.065%.
384-well plates (Costar #3710) were filled using a liquid handling robot with 10 μL of a mixture of 8 μM polypeptide 4.10, 40 μM UDP-GlcNAc, and buffer (50 mM Tris, 20 mM CaCl2, 0.05% Tween-20, 0.05% NP-40, pH=7.8, 500 μM tris(hydroxypropyl)phosphine). Compound libraries were then transferred to the assay plates using a 100 nL pin array and 10 μL of 500 nM sOGT in buffer (50 mM Tris, 20 mM CaCl2, 0.05% Tween-20, 0.05% NP-40, pH=7.8, 500 μM tris(hydroxypropyl)phosphine) was added using a liquid handling robot. The compounds were assayed at a concentration of 25 μg/mL or ˜70 μM, assuming an average compound MW of 350. After 2-3 hours, 20 μL of a 20 ng/mL proteinase K solution in buffer (50 mM Tris, 20 mM CaCl2, 0.05% Tween-20, 0.05% NP-40, pH=7.8) was added and allowed to react for 30-90 minutes. The plates were read using a Perkin-Elmer Envision® microplate reader with a 480 nm excitation filter and 530 nm emission filter.

| Molecule | hit in the high throughput screen |
| --- | --- |
| O=C(/C=C/c1cccs1)Nc1scc(-c2ccccc2)c1C(=O)O [Compound 2] | singleton hits |
| CSC(SC)=C(C#N)S(=O)(=O)c1ccc(Cl)cc1 [Compound 3] | hits |
| N#CSc1cc(SC#N)c(N)nc1N [Compound 4] | hits |
| COc1cccc(/N=C\c2c[nH]c3ccccc23)c1 [Compound 5] | hits |
| Cc1cc(C)c2c(C(=O)O)cc(O)nc2c1 [Compound 6] | singleton hits |
| Cl.Cl.N=C(N)c1cccc(NC(=O)Nc2cccc(C(=N)N)c2)c1 [Compound 10] | singleton hits |
| Clc1cccc(C(c2nnc(-c3ccccc3)o2)N2CCN(c3ccccc3)CC2)c1 (stereo not shown) [Compound 15] | singleton hits |
| O=C1OCc2ccccc21 [Compound 16] | singleton hits |
| O=C(O)[C@H](Cc1ccccc1)N1Cc2ccccc2C1=O [Compound 17] | singleton hits |
| CCn1cc(C(=O)N2CCOCC2)c(=O)c2cc(S(=O)(=O)N(C)C)ccc21 [Compound 18] | singleton hits |
| Fc1ccc(NC2=NCCN2)cc1 [Compound 21] | singleton hits |

Molecular target: T2, O-Linked N-acetylglucosaminyltransferase (OGT) (Homo sapiens, UniProt O15294)
T2 sequence (O15294 1-1046): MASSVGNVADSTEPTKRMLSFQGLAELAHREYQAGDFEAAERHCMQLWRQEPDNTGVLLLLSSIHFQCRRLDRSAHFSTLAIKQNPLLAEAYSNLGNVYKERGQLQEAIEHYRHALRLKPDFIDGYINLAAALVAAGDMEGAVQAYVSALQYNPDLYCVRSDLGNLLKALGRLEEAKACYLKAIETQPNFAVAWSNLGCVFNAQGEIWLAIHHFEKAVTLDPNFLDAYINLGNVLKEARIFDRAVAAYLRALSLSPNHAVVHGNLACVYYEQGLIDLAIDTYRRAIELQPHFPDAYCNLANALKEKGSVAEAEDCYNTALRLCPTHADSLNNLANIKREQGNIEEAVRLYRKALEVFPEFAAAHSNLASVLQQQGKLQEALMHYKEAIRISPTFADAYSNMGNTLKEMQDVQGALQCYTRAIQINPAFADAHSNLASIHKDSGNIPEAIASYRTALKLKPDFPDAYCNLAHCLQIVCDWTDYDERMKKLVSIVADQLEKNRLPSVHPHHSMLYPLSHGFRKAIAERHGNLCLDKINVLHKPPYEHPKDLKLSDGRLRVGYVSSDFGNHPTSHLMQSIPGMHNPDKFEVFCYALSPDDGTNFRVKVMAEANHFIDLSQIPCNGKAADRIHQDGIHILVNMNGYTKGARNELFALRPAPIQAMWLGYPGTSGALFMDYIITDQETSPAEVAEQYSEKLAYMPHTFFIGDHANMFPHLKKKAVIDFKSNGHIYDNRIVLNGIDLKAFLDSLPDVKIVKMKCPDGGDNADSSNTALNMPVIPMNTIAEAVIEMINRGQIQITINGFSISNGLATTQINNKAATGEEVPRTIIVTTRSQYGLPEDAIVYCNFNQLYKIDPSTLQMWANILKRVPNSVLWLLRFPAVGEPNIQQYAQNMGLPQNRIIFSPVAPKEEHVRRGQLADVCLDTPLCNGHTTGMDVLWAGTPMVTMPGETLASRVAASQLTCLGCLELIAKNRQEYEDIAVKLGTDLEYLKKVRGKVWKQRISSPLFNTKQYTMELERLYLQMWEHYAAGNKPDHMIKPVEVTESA
Test: Glycosylation of CK2-derived polypeptide substrates by OGT, quantified by LC/MS
Format: biochemical
Conditions: OGT, LC/MS peak integration at 445 nm; relative to wt polypeptide 4.1
Description: To address the first requirement, a panel of polypeptides was synthesized based on a truncated version of the CKII polypeptide [CKII peptide PGGSTPVSSNAMM (SEQ ID NO:20)]. The polypeptide was modified from the native sequence in several ways. First, a fluorescein was installed on the N-terminus during synthesis. Second, a lysine was added to the C-terminus so that a second dye or quencher could be installed by reaction with the appropriate N-hydroxysuccinimidyl ester. These modifications allowed two different FRET approaches. The first approach required the installation of a coumarin derivative on the polypeptide. The second required installation of a quencher molecule, which measured total fluorescence intensity. (See Examples 2 and 3). Finally, the residues on either side of the glycosylated serine of the truncated CK2 polypeptide were changed to phenylalanine, leucine or arginine to introduce proteolytic cleavage sites for common proteases (such as trypsin, chymotrypsin and thermolysin) that were not present in the native sequence. It was reasoned that cleavage adjacent to the glycosylation site would yield the largest difference in the rate of proteolysis between glycosylated and native polypeptides. This series of polypeptides was synthesized and screened for OGT activity using by LC/MS. Peak integration (measured at 445 nm) was used to quantitative products and reactants and mass spectrometry was used to confirm peak identity. The results are presented in Table 2 and some of the peptides (peptide 4.1, 4.4, and 4.5 top to bottom) are illustrated in FIG. 2.
All polypeptides were purchased from Tufts University core facility (Boston, Mass.). The mass of crude product was verified and the polypeptides were labeled under the following conditions: Polypeptide was dissolved in 250 mM NaHCO3 buffer, pH 8.2 at a 5 mM concentration and the appropriate NHS-Ester (0.5 eq) was dissolved in DMSO (a volume of 1/10 of the aqueous buffer was used). The DMSO solution was quickly added to the peptide and the reaction proceeded at room temperature for 30 minutes. This was repeated 2 more times (four more times for polypeptide 4.10). The reaction was monitored by LC/MS. LCMS conditions for polypeptides 4.1-4.8—Agilent Eclipse 5 μm XD8-C8 column, 0→100% CH3CN+0.1% formic acid over 20 minutes. LCMS conditions for polypeptides 4.9-4.10—Agilent Eclipse 5 μm XD8-C8 column, 0→100% CH3CN+0.1% NH4OH over 20 minutes. Each polypeptide was purified by preparative HPLC. Conditions for polypeptides 4.1-4.8 were: —Phenomonex Luna C18 5 μm column, 0→100% CH3CN+0.1% TFA over 40 minutes. Conditions for polypeptides 4.9-4.10 were: —Phenomonex Luna C18 5 μm column, 0→100% CH3CN+0.1% NH4OH over 40 minutes. Products were confirmed by LC/MS. Preparative Glycosylation of Labeled Polypeptides: Purified FRET labeled polypeptides were added (20-50 μM final concentration) to assay buffer (50 mM Tris, 20 mM CaCl2, 0.05% Tween-20, 0.05% NP-40, pH=7.8), 200 μM UDP-GlcNAc, 0.05 units of alkaline phosphatase, and 5 μM OGT. Reactions were monitored using LCMS: conditions for polypeptides 4.1-4.8—Agilent Eclipse 5 μm XD8-C8 column, 10→60% CH3CN+0.1% formic acid over 20 minutes. LCMS conditions for polypeptides 4.9-4.10—Agilent Eclipse 5 μm XD8-C8 column, 10→60% CH3CN+0.1% NH4OH over 20 minutes, and when complete were purified using the same column and conditions. Polypeptides 4.1-4.8 were quantitated by absorption at 492 nm using an extinction coefficient of 86,000 cm^−1M^−1; polypeptide 4.9 was quantitated by absorption at 530 nm using an extinction coefficient of 26,000 cm^−1M^−1; polypeptide 4.10 was quantitated by absorption at 530 nm using an extinction coefficient of 52,000 cm^−1M^−1. Fluorescence Resonance Energy Transfer (FRET)-Peptide Approach #1

| Molecule | Relative rate of glycosylation |
| --- | --- |
| FITC(Aha)STPFSSANMK ({FITC}-[Aha′]STPFSSANMK; reading uncertain; also: printed as FITC(Aha)STPFSSANMK) [Polypeptide 4.2] | 0.15 |
| FITC(Aha)STPRSSANMK ({FITC}-[Aha′]STPRSSANMK; reading uncertain; also: printed as FITC(Aha)STPRSSANMK) [Polypeptide 4.3] | 0 |
| FITC(Aha)STPVSFANMK ({FITC}-[Aha′]STPVSFANMK; reading uncertain; also: printed as FITC(Aha)STPVSFANMK) [Polypeptide 4.4] | 0.4 |
| FITC(Aha)STPVSRANMK ({FITC}-[Aha′]STPVSRANMK; reading uncertain; also: printed as FITC(Aha)STPVSRANMK) [Polypeptide 4.5] | 0.7 |

Same assay, conditions: more soluble variant vs earlier polypeptides

| Molecule | increase of glycosylation rate |
| --- | --- |
| FITC(Aha)STPVSRANMK(QXL ™ 520)R K(QXL ™ 520) ({FITC}-[Aha′]STPVSRANMK(QXL 520)RK(QXL 520); reading uncertain; also: printed as FITC(Aha)STPVSRANMK(QXL ™ 520)R K(QXL ™ 520)) [Polypeptide 4.10] | 2-3 fold |
